# Test results reported in PubChem BioAssay AID270 (DTP/NCI, 2004).
# Where “and” joins values, the source holds several entries; their conditions need not be identical. Equal entries are not always repeated. Inconclusive results are not listed.
# System: BDF1 mice, s.c. Lewis lung carcinoma, T/C %
# Experiment: NCI In Vivo Anticancer Drug Screen. Data for tumor model Lewis Lung Carcinoma (subcutaneous) in B6D2F1 (BDF1) mice
# Outline: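 The value reflects a ratio in which the treated cohort's survival time or tumour size is compared against mice receiving only vehicle.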
smiles,measurement,setting,value
CC[C@H](CC[C@@H](C)[C@H]1CC[C@H]2[C@@H]3CC=C4C[C@@H](O)CC[C@]4(C)[C@H]3CC[C@]12C)C(C)C,T/C,"endpoint: mean tumor weight, dose: 15.0 mg/kg/injection, schedule: Q01DX011 (ip), vehicle: water, higher = larger tumour",72 % of control
same,T/C,"endpoint: mean tumor weight, dose: 25.0 mg/kg/injection, schedule: Q01DX011 (ip), vehicle: water, higher = larger tumour",74 % of control
same,T/C,"endpoint: mean tumor weight, dose: 40.0 mg/kg/injection, schedule: Q01DX011 (ip), vehicle: water, higher = larger tumour",47 % of control
same,T/C,"endpoint: mean tumor weight, dose: 100.0 mg/kg/injection, schedule: Q01DX011 (ip), vehicle: water, higher = larger tumour",47 % of control
same,T/C,"endpoint: mean tumor weight, dose: 150.0 mg/kg/injection, schedule: Q01DX011 (ip), vehicle: water, higher = larger tumour",32 % of control
same,T/C,"endpoint: mean tumor weight, dose: 225.0 mg/kg/injection, schedule: Q01DX011 (ip), vehicle: water, higher = larger tumour",11 % of control
O=C1C(=O)c2ccccc2C(O)=C1CC=C(Cl)Cl,T/C,"endpoint: mean tumor weight, dose: 12.5 mg/kg/injection, schedule: Q01DX011 (ip), vehicle: carboxymethylcellulose (CMC), higher = larger tumour",88 % of control
same,T/C,"endpoint: mean tumor weight, dose: 25.0 mg/kg/injection, schedule: Q01DX011 (ip), vehicle: carboxymethylcellulose (CMC), higher = larger tumour",76 % of control
same,T/C,"endpoint: mean tumor weight, dose: 50.0 mg/kg/injection, schedule: Q01DX011 (ip), vehicle: carboxymethylcellulose (CMC), higher = larger tumour",90 % of control
same,T/C,"endpoint: mean tumor weight, dose: 50.0 mg/kg/injection, schedule: Q01DX011 (oral), vehicle: carboxymethylcellulose (CMC), higher = larger tumour",84 % of control
same,T/C,"endpoint: median survival time, dose: 12.5 mg/kg/injection, schedule: Q01DX009 (ip), vehicle: Klucel (hydroxypropylcellulose) (HPC), higher = longer survival",89 % of control and 100 % of control and 106 % of control
same,T/C,"endpoint: median survival time, dose: 25.0 mg/kg/injection, schedule: Q01DX009 (ip), vehicle: Klucel (hydroxypropylcellulose) (HPC), higher = longer survival",86 % of control and 94 % of control and 110 % of control
same,T/C,"endpoint: median survival time, dose: 34.0 mg/kg/injection, schedule: Q01DX009 (ip), vehicle: water, higher = longer survival",113 % of control
same,T/C,"endpoint: median survival time, dose: 50.0 mg/kg/injection, schedule: Q01DX009 (ip), vehicle: Klucel (hydroxypropylcellulose) (HPC), higher = longer survival",103 % of control and 110 % of control
same,T/C,"endpoint: median survival time, dose: 50.0 mg/kg/injection, schedule: Q01DX009 (ip), vehicle: water, higher = longer survival",110 % of control
same,T/C,"endpoint: median survival time, dose: 100.0 mg/kg/injection, schedule: Q01DX009 (ip), vehicle: Klucel (hydroxypropylcellulose) (HPC), higher = longer survival",117 % of control
same,T/C,"endpoint: median tumor weight (est.), dose: 12.5 mg/kg/injection, schedule: Q01DX009 (ip), vehicle: Klucel (hydroxypropylcellulose) (HPC), higher = larger tumour",93 % of control and 99 % of control
same,T/C,"endpoint: median tumor weight (est.), dose: 25.0 mg/kg/injection, schedule: Q01DX009 (ip), vehicle: Klucel (hydroxypropylcellulose) (HPC), higher = larger tumour",78 % of control and 86 % of control
same,T/C,"endpoint: median tumor weight (est.), dose: 50.0 mg/kg/injection, schedule: Q01DX009 (ip), vehicle: Klucel (hydroxypropylcellulose) (HPC), higher = larger tumour",87 % of control
same,T/C,"endpoint: median tumor weight (est.), dose: 100.0 mg/kg/injection, schedule: Q01DX009 (ip), vehicle: Klucel (hydroxypropylcellulose) (HPC), higher = larger tumour",70 % of control
CC(=O)OC(C)(C)/C=C/C(=O)[C@](C)(O)[C@H]1[C@H](O)C[C@@]2(C)[C@@H]3CC=C4[C@@H](CC[C@H](O)C4(C)C)[C@]3(CO)C(=O)C[C@]12C,T/C,"endpoint: mean tumor weight, dose: 0.57 mg/kg/injection, schedule: Q01DX011 (ip), vehicle: saline, higher = larger tumour",67 % of control
CN(C)c1nc(N(C)C)nc(N(C)C)n1,T/C,"endpoint: median survival time, dose: 6.25 mg/kg/injection, schedule: Q08HX024 (ip), vehicle: Klucel (hydroxypropylcellulose) (HPC), higher = longer survival",106 % of control
same,T/C,"endpoint: median survival time, dose: 12.5 mg/kg/injection, schedule: Q01DX009 (ip), vehicle: saline with Tween-80, higher = longer survival",93 % of control and 102 % of control
same,T/C,"endpoint: median survival time, dose: 25.0 mg/kg/injection, schedule: Q01DX009 (ip), vehicle: saline with Tween-80, higher = longer survival",97 % of control and 102 % of control
same,T/C,"endpoint: median survival time, dose: 25.0 mg/kg/injection, schedule: Q08HX024 (ip), vehicle: Klucel (hydroxypropylcellulose) (HPC), higher = longer survival",112 % of control
same,T/C,"endpoint: median survival time, dose: 50.0 mg/kg/injection, schedule: Q01DX009 (ip), vehicle: saline with Tween-80, higher = longer survival",103 % of control and 110 % of control
same,T/C,"endpoint: median survival time, dose: 100.0 mg/kg/injection, schedule: Q01DX009 (ip), vehicle: saline with Tween-80, higher = longer survival",102 % of control
CC(C)[C@]1(O)CC[C@H]2[C@@H]3CCc4cc(O)ccc4[C@H]3CC[C@@]21C,T/C,"endpoint: mean tumor weight, dose: 2.5 mg/kg/injection, schedule: Q01DX011 (sc), vehicle: saline, higher = larger tumour",87 % of control
same,T/C,"endpoint: mean tumor weight, dose: 5.0 mg/kg/injection, schedule: Q01DX011 (sc), vehicle: saline, higher = larger tumour",68 % of control
same,T/C,"endpoint: mean tumor weight, dose: 10.0 mg/kg/injection, schedule: Q01DX011 (sc), vehicle: saline, higher = larger tumour",80 % of control
same,T/C,"endpoint: mean tumor weight, dose: 10.0 mg/kg/injection, schedule: Q01DX011 (sc), vehicle: steriod suspending solution, higher = larger tumour",51 % of control
same,T/C,"endpoint: mean tumor weight, dose: 20.0 mg/kg/injection, schedule: Q01DX011 (sc), vehicle: steriod suspending solution, higher = larger tumour",65 % of control
same,T/C,"endpoint: mean tumor weight, dose: 40.0 mg/kg/injection, schedule: Q01DX011 (sc), vehicle: steriod suspending solution, higher = larger tumour",36 % of control
same,T/C,"endpoint: mean tumor weight, dose: 80.0 mg/kg/injection, schedule: Q01DX011 (sc), vehicle: steriod suspending solution, higher = larger tumour",55 % of control
ClCCn1cnc2c(SCc3ccccc3)ncnc21,T/C,"endpoint: mean tumor weight, dose: 60.0 mg/kg/injection, schedule: Q01DX011 (ip), vehicle: other, higher = larger tumour",107 % of control
same,T/C,"endpoint: mean tumor weight, dose: 120.0 mg/kg/injection, schedule: Q01DX011 (ip), vehicle: other, higher = larger tumour",77 % of control
same,T/C,"endpoint: mean tumor weight, dose: 240.0 mg/kg/injection, schedule: Q01DX011 (ip), vehicle: other, higher = larger tumour",46 % of control
